The values that follow come from patent publication US7119073B2, “Peptides and their use as inhibitors of hepatitis C virus ns3 protease” (Istituto Di Ricerche Di Biologia Molecolare P. Angeletti SpA, priority 2001, dated 2006).

Where a SMILES comes first, the peptide text is derived from it. The star is where a group is joined. NHPhenethyl = c1ccc(CCN*)cc1; Cbz = O=C(OCc1ccccc1)* Some results are limits rather than exact numbers.

T1 sequence (P26663 1027-1206, other chains not shown): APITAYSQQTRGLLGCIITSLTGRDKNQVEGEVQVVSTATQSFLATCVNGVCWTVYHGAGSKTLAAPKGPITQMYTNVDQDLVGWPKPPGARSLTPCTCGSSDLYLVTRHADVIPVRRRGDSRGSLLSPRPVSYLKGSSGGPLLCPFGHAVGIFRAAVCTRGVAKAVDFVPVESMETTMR

The first assay addresses T1, NS3 protease domain complexed to a modified form of the NS4A peptide (Pep4AK) (Hepatitis C virus genotype 1b, UniProt P26663).
T1 construct: NS3 protease domain (residues 1027–1206 of the HCV polyprotein)
The assay can be described thus: HCV NS3 protease domain/NS4A cofactor peptide assay (Assay B). In kind it is biochemical. Particulars: NS3 protease domain/NS4A cofactor peptide assay; read-out: Assay B (IC50 class).
Turning to `CC(C)C[C@H](NC(=O)C1(Cc2ccc(C(=O)O)s2)CCc2ccccc2N1)C(=O)N[C@@H](CC(F)F)C(=O)NCCc1ccc(C(=O)O)cc1Cl` (single isomer, unassigned) [Compound 711a], the IC50 was less than 100 µM. On the same count and under the same terms, the figure for `CC(C)CC(NC(=O)c1ccccc1-c1ccccc1C(=O)O)C(=O)NC(CS)C(=O)NCCc1ccccc1Cl` (stereo not shown) [Compound 716] is less than 100 µM; for `CCOC(=O)C=Cc1cccc(CCNC(=O)C(CC(F)F)NC(=O)C(CC(C)C)NC(=O)c2ccccc2-c2ccccc2C(=O)O)c1` (stereo not shown) [Compound 719] it is less than 100 µM.

Staying with this assay, now noted: Table 1; NS3 protease domain/Pep4AK, 4AB peptide substrate; read-out: Assay B.
`COc1ccc(OC)c(CCNC(=O)C(CS)NC(=O)C(CC(C)C)NC(=O)C(CCC(=O)O)NC(=O)OCC(C)C)c1` (stereo not shown) [Compound 174]: the IC50 was less than 100 µM.

`CC(C)COC(=O)NC(CCC(=O)O)C(=O)NC(CC(C)C)C(=O)NC(CS)C(=O)NCCc1ccc(Br)cc1` (stereo not shown) [Compound 139]: the IC50 is less than 100 µM. The same measure, in the same setting: the figure for `CC(C)COC(=O)NC(CCC(=O)O)C(=O)NC(CC(C)C)C(=O)NC(CS)C(=O)NCCc1ccccc1Oc1ccccc1` (stereo not shown) [Compound 123] is less than 100 µM; for `Cc1ccccc1CCNC(=O)C(CS)NC(=O)C(CC(C)C)NC(=O)C(CCC(=O)O)NC(=O)OCC(C)C` (stereo not shown) [Compound 118] it is less than 100 µM; for `CCOc1ccc(CCNC(=O)C(CS)NC(=O)C(CC(C)C)NC(=O)C(CCC(=O)O)NC(=O)OCC(C)C)cc1` (stereo not shown) [Compound 144] it is less than 100 µM. Same read-out and setting: the figure for `CC(C)C[C@H](NC(=O)[C@@H](NC(=O)OCC1CCOC1)C(C)C)C(=O)N[C@@H](CS)C(=O)NCCc1ccc(C(=O)O)cc1Cl` (stereo partly shown) [Compound 183] is less than 10 µM. The same measure, in the same setting: the figure for `COC(=O)c1ccc(CCNC(=O)C(CS)NC(=O)C(CC(C)C)NC(=O)C(CCC(=O)O)NC(=O)OCC(C)C)c(F)c1` (stereo not shown) [Compound 185] is less than 100 µM.

`CC(C)COC(=O)NC(CCC(=O)O)C(=O)NC(CC(C)C)C(=O)NC(CS)C(=O)NCCc1cccc(F)c1` (stereo not shown) [Compound 126]: the IC50 is less than 100 µM. For the compound `CCCCc1ccnc(C(=O)NS(=O)(=O)c2ccc(CCNC(=O)[C@H](CS)NC(=O)[C@H](CC(C)C)NC(=O)[C@H](CCC(=O)O)NC(=O)OCC(C)C)cc2)c1` [Compound 163], the IC50 was less than 10 µM. Turning to `CC(C)COC(=O)NC(CCC(=O)O)C(=O)NC(CC(C)C)C(=O)NC(CC(F)F)C(=O)NCCc1c(F)cc(C(=O)O)cc1F` (stereo not shown) [Compound 187], the IC50 was less than 1 µM.

With `COC(=O)Cc1ccc(CCNC(=O)C(CS)NC(=O)C(CC(C)C)NC(=O)C(CCC(=O)O)NC(=O)OCC(C)C)cc1` (stereo not shown) [Compound 153], the IC50 was less than 100 µM.

Turning to `CC(C)COC(=O)NC(CCC(=O)O)C(=O)NC(CC(C)C)C(=O)NC(CS)C(=O)NCCc1ccc2ccccc2c1` (stereo not shown) [Compound 192], the IC50 is less than 100 µM.

In the case of `CC(C)CC(NC(=O)C(NC(=O)OC1CCS(=O)(=O)CC1)C(C)C)C(=O)NC(CS)C(=O)NCCc1ccc(C(=O)O)cc1Cl` (stereo not shown) [Compound 182], the IC50 was less than 100 µM. Still for that read-out and setting: the figure for `Cc1cccc(CCNC(=O)C(CS)NC(=O)C(CC(C)C)NC(=O)C(CCC(=O)O)NC(=O)OCC(C)C)c1` (stereo not shown) [Compound 130] is less than 100 µM; for `Cc1ccc(CCNC(=O)C(CS)NC(=O)C(CC(C)C)NC(=O)C(CCC(=O)O)NC(=O)OCC(C)C)cc1` (stereo not shown) [Compound 140] it is less than 100 µM; for `CC(C)COC(=O)N[C@@H](CCC(=O)O)C(=O)N[C@@H](CC(C)C)C(=O)N[C@@H](CS)C(=O)NCCc1ccc(Cl)cc1Cl` [Compound 165] it is less than 10 µM. Still for that read-out and setting: the figure for `CC(C)C[C@H](NC(=O)[C@H](CCC(=O)O)NC(=O)OCc1ccccc1)C(=O)N[C@@H](CS)C(=O)NCCc1ccccc1` [Compound 101] (Cbz-Glu-Leu-Cys-NHPhenethyl) is less than 100 µM. Same read-out and setting: for `CC(C)CC(NC(=O)C(CCC(=O)O)NC(=O)OCc1ccccc1)C(=O)NC(CS)C(=O)NCCc1ccccc1Cl` (stereo not shown) [Compound 116] the value was less than 100 µM; for `CC(C)COC(=O)NC(CCC(=O)O)C(=O)NC(CC(C)C)C(=O)NC(CS)C(=O)NCCc1ccccc1C(F)(F)F` (stereo not shown) [Compound 121], less than 100 µM. For `CC(=O)NS(=O)(=O)c1ccc(CCNC(=O)C(CS)NC(=O)C(CC(C)C)NC(=O)C(CCC(=O)O)NC(=O)OCC(C)C)cc1` (stereo not shown) [Compound 160], the IC50 was less than 10 µM. On the same count and under the same terms, the figure for `CC(C)COC(=O)N[C@@H](CCC(=O)O)C(=O)N[C@@H](CC(C)C)C(=O)N[C@@H](CS)C(=O)NCC(C)c1ccccc1` (mixture of isomers) [Compound 107] is less than 100 µM; for `CC(C)CC(NC(=O)C(CCC(=O)O)NC(=O)OC(C)(C)C)C(=O)NC(CC(F)F)C(=O)NCCc1ccccc1` (stereo not shown) [Compound 105] it is less than 100 µM; for `COc1ccccc1CCNC(=O)C(CS)NC(=O)C(CC(C)C)NC(=O)C(CCC(=O)O)NC(=O)OCC(C)C` (stereo not shown) [Compound 119] it is less than 100 µM.

Staying with this assay, now noted: Table 2; NS3 protease domain/Pep4AK; read-out: Assay B.
Take `COc1ccc(CCNC(=O)[C@H](CS)NC(=O)[C@H](CC(C)C)NC(=O)[C@H](CCC(=O)O)NC(=O)Cc2cccs2)cc1` [Compound 223]: the IC50 is less than 100 µM. Still for that read-out and setting: the figure for `CC(C)C[C@H](NC(=O)[C@H](CCC(=O)O)NC(=O)Cc1ccccc1)C(=O)N[C@@H](CS)C(=O)NCCc1ccccc1Cl` [Compound 215] is less than 100 µM. The same measure, in the same setting: the figure for `CC(C)C[C@H](NC(=O)[C@H](CCC(=O)O)NC(=O)Cc1ccc(CC(=O)O)cc1)C(=O)N[C@@H](CS)C(=O)NCCc1ccc(Cl)cc1Cl` [Compound 227] is less than 100 µM.

In the case of `CC(C)C[C@H](NC(=O)[C@H](CCC(=O)O)NC(=O)Cc1ccsc1)C(=O)N[C@@H](CS)C(=O)NCCc1ccccc1Cl` [Compound 222], the IC50 is less than 100 µM.

Take `CC(C)C[C@H](NC(=O)[C@H](CCC(=O)O)NC(=O)CCC(=O)O)C(=O)N[C@@H](CS)C(=O)NCCc1ccccc1Cl` [Compound 239]: the IC50 is less than 100 µM. The same measure, in the same setting: the figure for `COc1ccc(CCNC(=O)[C@H](CS)NC(=O)[C@H](CC(C)C)NC(=O)[C@H](CCC(=O)O)NC(=O)C2CCCCC2)cc1` [Compound 231] is less than 100 µM; for `CC(C)C[C@H](NC(=O)[C@H](CCC(=O)O)NC(=O)CCCC(=O)O)C(=O)N[C@@H](CS)C(=O)NCCc1ccccc1Cl` [Compound 244] it is less than 100 µM; for `COc1ccc(CCNC(=O)[C@H](CS)NC(=O)[C@H](CC(C)C)NC(=O)[C@H](CCC(=O)O)NS(=O)(=O)c2ccccc2)cc1` [Compound 250] it is less than 100 µM. Same read-out and setting: the figure for `CC(C)C[C@H](NC(=O)[C@H](CCC(=O)O)NC(=O)/C=C/c1ccc([N+](=O)[O-])cc1)C(=O)N[C@@H](CS)C(=O)NCCc1ccccc1Cl` [Compound 218] is less than 100 µM; for `Cc1nn(Cc2cccc(C(=O)N[C@@H](CCC(=O)O)C(=O)N[C@@H](CC(C)C)C(=O)N[C@@H](CS)C(=O)NCCc3ccccc3Cl)c2)c(C)c1Br` [Compound 210] it is less than 100 µM; for `CC(C)C[C@H](NC(=O)[C@H](CCC(=O)O)NC(=O)C(=O)c1cccs1)C(=O)N[C@@H](CS)C(=O)NCCc1ccccc1Cl` [Compound 224] it is less than 100 µM. Still for that read-out and setting: the figure for `CC(C)C[C@H](NC(=O)[C@H](CCC(=O)O)NC(=O)CC(C)CC(=O)O)C(=O)N[C@@H](CS)C(=O)NCCc1ccccc1Cl` (stereo partly shown) [Compound 245] is less than 100 µM.

`COc1ccc(CCNC(=O)[C@H](CS)NC(=O)[C@H](CC(C)C)NC(=O)[C@H](CCC(=O)O)NC(=O)Cc2ccccc2)cc1` [Compound 216]: the IC50 is less than 100 µM.

Still in this assay, the particulars now being: Table 4; NS3 protease domain/Pep4AK; read-out: Assay B.
With `CC(C)COC(=O)N[C@@H](CCC(=O)O)C(=O)N[C@@H](CC1CC1)C(=O)N[C@@H](CS)C(=O)NCCc1ccccc1Cl` [Compound 408], the IC50 was less than 100 µM.
